According to patent US7511041B2, “Fused azole-pyrimidine derivatives” (Bayer Pharmaceuticals Corporation, priority 2002, dated 2009):
Counter-ions that a name gives are not always drawn. Like-named read-outs stand apart in the source and are kept apart here. Values belong to the compound of their own block, whether it stands above or below them.

Legend:
[1] = target: PI3Kβ (heterocomplex of p110β and GST-p85α) (UniProt Q9Z1L0); assay: Isozyme selectivity test: kinase assay of PI3Kβ; type: biochemical; settings: activity class of IC50, read-out: In vitro PI3K-β inhibitory activity
Protocol: [Isozyme Selectivity Test in PI3K]
{Determination of IC50 Values of Compounds in Kinase Assay of PI3Kβ}
Recombinant baculovirus of PI3Kβ p110β and GST-p85α were obtained from Dr. Katada (University of Tokyo). Recombinant PI3K heterocomplex of p110β and GST-p85α were co-expressed in insect cells according to manufacture's instruction (Pharmingen, San Diego, Calif.), and purified with glutathione affinity column. Kinase assay of PI3Kβ was prepared in a similar manner as described in the part of [Determination of IC50 values of compounds in kinase assay of PI3Kγ].

[2] = target: T1, Recombinant human PI3Kγ (full length human PI3K p110γ) (Homo sapiens, UniProt P48736); assay: Kinase assay of PI3Kγ (solid-phase lipid kinase assay); type: biochemical
T1 construct: full length human PI3K p110γ fused with a His6-tag at the C-terminus; His6 (C); purchased ALEXIS BIOCHEMICALS #201-055-C010; host or cells: S. frugiperda 9 insect cells

[3] = activity class of IC50, read-out: In vitro PI3K-γ inhibitory activity
[4] = in vitro PI3K-γ inhibitory activity, class symbols, read-out: in vitro PI3K-gamma
[5] = in vitro PI3K-γ inhibitory activity, class symbols A-D, read-out: in vitro PI3K-gamma
[6] = Table 1, isozyme not given, read-out: in vitro

T1 sequence (P48736 whole entry, the tested form may be a part): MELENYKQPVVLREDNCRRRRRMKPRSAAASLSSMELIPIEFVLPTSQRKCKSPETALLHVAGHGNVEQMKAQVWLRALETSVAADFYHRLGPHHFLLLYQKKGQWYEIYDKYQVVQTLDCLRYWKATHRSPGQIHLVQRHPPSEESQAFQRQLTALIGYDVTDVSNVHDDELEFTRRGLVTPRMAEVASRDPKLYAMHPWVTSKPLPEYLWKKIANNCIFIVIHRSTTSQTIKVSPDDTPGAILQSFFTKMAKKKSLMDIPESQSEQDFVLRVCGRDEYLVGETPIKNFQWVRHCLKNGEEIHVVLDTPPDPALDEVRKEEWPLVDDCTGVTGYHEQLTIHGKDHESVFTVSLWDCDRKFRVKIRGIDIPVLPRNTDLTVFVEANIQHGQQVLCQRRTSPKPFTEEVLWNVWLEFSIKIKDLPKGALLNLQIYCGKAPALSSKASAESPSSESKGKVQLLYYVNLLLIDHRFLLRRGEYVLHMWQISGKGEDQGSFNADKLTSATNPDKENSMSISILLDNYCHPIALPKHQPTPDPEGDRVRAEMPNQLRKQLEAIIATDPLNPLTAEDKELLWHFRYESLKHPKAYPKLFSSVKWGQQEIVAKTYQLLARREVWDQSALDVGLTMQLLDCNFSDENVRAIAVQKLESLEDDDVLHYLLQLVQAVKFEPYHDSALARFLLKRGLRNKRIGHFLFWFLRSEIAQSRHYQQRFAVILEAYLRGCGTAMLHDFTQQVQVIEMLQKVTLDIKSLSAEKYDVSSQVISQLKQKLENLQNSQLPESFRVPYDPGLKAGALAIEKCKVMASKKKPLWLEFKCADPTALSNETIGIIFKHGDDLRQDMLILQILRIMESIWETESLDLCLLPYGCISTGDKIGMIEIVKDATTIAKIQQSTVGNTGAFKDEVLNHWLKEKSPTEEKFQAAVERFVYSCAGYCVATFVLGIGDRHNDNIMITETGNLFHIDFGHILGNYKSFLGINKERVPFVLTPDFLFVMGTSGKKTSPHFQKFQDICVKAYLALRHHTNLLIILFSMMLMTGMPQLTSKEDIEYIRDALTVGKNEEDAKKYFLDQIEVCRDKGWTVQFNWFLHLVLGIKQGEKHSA

melting point: 209 °C
IC50 [1]: 100 to 500 nM
IC50 [2, 3]: 100 to 500 nM
SMILES: O=C(NC1=Nc2cc(OCCn3cccc3)ccc2C2=NCCN12)c1cccnc1 [Example 2-6, N-{8-[2-(1-pyrrolyl)ethoxy]-2,3-dihydroimidazo[1,2-c]quinazolin-5-yl}nicotinamide]

melting point: 289 °C
IC50 [1]: 500 to 2000 nM
IC50 [2, 3]: 100 to 500 nM
SMILES: O=C(NC1=Nc2cc(O)ccc2C2=NCCN12)c1cccnc1 [Example 2-5, N-(8-Hydroxy-2,3-dihydroimidazo[1,2-c]quinazolin-5-yl)nicotinamide]

melting point: > 300 °C
IC50 [2, 4]: < 100 nM
SMILES: Nc1ccc(C(=O)NC2=Nc3ccccc3C3=NCCN23)cn1 [Example 2-149]

melting point: 276 °C
IC50 [2, 5]: 100 to 500 nM
SMILES: Cl.O=C(NC1=Nc2ccc(Cl)cc2C2=NCCN12)c1cccs1 [Example 2-356]

melting point: > 410 °C
IC50 [2, 5]: > 2000 nM
SMILES: CC(C)(C)Oc1ccc(C(=O)NC2=Nc3ccccc3C3=NCCN23)cc1 [Example 2-236]

melting point: 198 to 199 °C
IC50 [2, 4]: < 100 nM
SMILES: O=C(NC1=Nc2ccccc2C2=NCCN12)c1cccnc1Cl [Example 2-134]

melting point: 220 °C (dec.)
IC50 [2, 4]: < 100 nM
SMILES: COc1cccc2c1N=C(NC(=O)c1cnccc1C)N1CCN=C21.Cl [Example 2-120]

melting point: > 280 °C
IC50 [2, 4]: < 100 nM
SMILES: CC(=O)Nc1ccc(C(=O)NC2=Nc3c(Cl)cccc3C3=NCCN23)cn1.Cl [Example 2-105]

melting point: 227 °C
IC50 [2, 5]: 500 to 2000 nM
SMILES: Cl.O=C(NC1=Nc2cccc(Cl)c2C2=NCCN12)c1cccs1 [Example 2-359]

melting point: 219 °C (dec.)
IC50 [2, 4]: 100 to 500 nM
SMILES: CN(C)/C=N/c1cncc(C(=O)NC2=Nc3ccccc3C3=NCCN23)c1 [Example 2-146]

melting point: 248 °C (dec.)
IC50 [2, 5]: > 2000 nM
SMILES: COc1cc(C(=O)NC2=Nc3ccccc3C3=NCCN23)cc(OC)c1C [Example 2-241]

melting point: 280 °C (dec.)
IC50 [2, 5]: > 2000 nM
SMILES: CC(C)(C)OC(=O)Nc1cccc(C(=O)NC2=Nc3ccccc3C3=NCCN23)c1 [Example 2-265]

melting point: 358 to 359 °C
IC50 [2, 4]: 100 to 500 nM
SMILES: O=C(O)c1cncc(C(=O)NC2=Nc3ccccc3C3=NCCN23)c1 [Example 2-142]

melting point: 179 to 180 °C
IC50 [2, 5]: > 2000 nM
SMILES: O=C(NC1=Nc2ccccc2C2=NCCN12)C1CCNCC1 [Example 2-339]

melting point: 226 °C
IC50 [2, 5]: 100 to 500 nM
SMILES: O=C(NC1=Nc2cc(C(F)(F)F)ccc2C2=NCCN12)c1cccs1 [Example 2-349]

melting point: 289 °C (dec.)
IC50 [2, 5]: > 2000 nM
SMILES: CCOC(=O)c1cc(C(=O)NC2=Nc3ccccc3C3=NCCN23)cc(C(=O)OCC)c1 [Example 2-274]

melting point: 308 °C
IC50 [2, 4]: 100 to 500 nM
SMILES: Cl.O=C(NC1=Nc2cc(Cl)ccc2C2=NCCN12)c1cccnc1 [Example 2-38]

melting point: 243 °C
IC50 [2, 5]: 500 to 2000 nM
SMILES: O=C(NC1=Nc2cccc(Cl)c2C2=NCCN12)c1cccnc1 [Example 2-357]

Further lines, the compound ahead of its results:

SMILES: COc1c(O)ccc2c1N=C(/C=C(\O)c1cccnc1)N1CCN=C21 [Example 1-4, 5-(2-Hydroxy-2-pyridin-3-ylvinyl)-7-methoxy-2,3-dihydroimidazo[1,2-c]quinazolin-8-ol hydrochloride]
IC50 [1]: 500 to 2000 nM
IC50 [2, 3]: < 100 nM

SMILES: CC(=O)Nc1ccc(C(=O)NC2=Nc3cc(N4CCOCC4)ccc3C3=NCCN23)cn1 [Example 2-4, 6-(Acetamido)-N-[8-(morpholin-4-yl)-2,3-dihydroimidazo[1,2-c]quinazolin-5-yl]nicotinamide hydrochloride]
IC50 ([1]; hydrochloride): 100 to 500 nM

SMILES: COC(=O)CCCOc1ccc2c(c1OC)N=C(/C=C(\O)c1cccnc1)N1CCN=C21 [Example 1-5, Methyl 4-{[5-(2-hydroxy-2-pyridin-3-ylvinyl)-7-methoxy-2,3-dihydroimidazo[1,2-c]quinazolin-8-yl]oxy}butanoate]
melting point: 199 to 200 °C
IC50 [1]: 500 to 2000 nM
IC50 [2, 3]: < 100 nM

SMILES: COc1c(OCCCC(=O)N2CCOCC2)ccc2c1N=C(/C=C(\O)c1cccnc1)N1CCN=C21 [Example 1-8, 2-[7-Methoxy-8-(4-morpholin-4-yl-4-oxobutoxy)-2,3-dihydroimidazo[1,2-c]quinazolin-5-yl]-1-pyridin-3-ylethylenol]
melting point: 234 to 235 °C
IC50 [1]: 100 to 500 nM
IC50 [2, 3]: < 100 nM

SMILES: O=C(NC1=Nc2ccccc2C2=NCCN12)c1cccnc1 [Example 2-1, N-(2,3-Dihydroimidazo[1,2-c]quinazolin-5-yl)nicotinamide]
melting point: 238 to 239 °C (dec.)
IC50 [1]: 100 to 500 nM
IC50 [2, 3]: < 100 nM

SMILES: CC(=O)Nc1ccc(C(=O)NC2=Nc3cc(N4CCOCC4)ccc3C3=NCCN23)cn1 [Example 2-3, 6-(Acetamido)-N-[8-(morpholin-4-yl)-2,3-dihydroimidazo[1,2-c]quinazolin-5-yl]nicotinamide]
IC50 [1]: 500 to 2000 nM
IC50 [2, 3]: < 100 nM

SMILES: COc1cc2c(cc1OC)C1=NCCN1C(/C=C(\O)c1cccnc1)=N2 [Example 1-1, (Z)-2-(8,9-Dimethoxy-2,3-dihydroimidazo[1,2-c]quinazolin-5-yl)-1-(3-pyridinyl)ethenol]
melting point: 275 °C
IC50 [1]: 500 to 2000 nM
IC50 [2, 3]: < 100 nM

SMILES: COc1c(OCCCC(=O)O)ccc2c1N=C(/C=C(\O)c1cccnc1)N1CCN=C21 [Example 1-6, 4-{[5-(2-Hydroxy-2-pyridin-3-ylvinyl)-7-methoxy-2,3-dihydroimidazo[1,2-c]quinazolin-8-yl]oxy}butanoic acid]
IC50 [1]: 100 to 500 nM
IC50 [2, 3]: < 100 nM

SMILES: Cc1cccc2c1N=C(/C=C(\O)c1ccc3[nH]cnc3c1)N1CCN=C21.Cl [Example 1-79]
melting point: > 285 °C
IC50 [2, 6]: < 100 nM

SMILES: COc1c(OCCCC(=O)N2CCOCC2)ccc2c1N=C(/C=C(\O)c1cccnc1)N1CCN=C21.Cl [Example 1-198]
melting point: 215 to 216 °C
IC50 [2, 6]: < 100 nM

SMILES: O/C(=C\C1=Nc2ccccc2C2=NCCN12)c1cccc(Cl)c1 [Example 1-171]
melting point: 224 to 227 °C
IC50 [2, 6]: > 2000 nM

SMILES: Cc1cccc2c1N=C(/C=C(\O)c1cccnc1)N1CCN=C21 [Example 1-75]
melting point: 248 °C
IC50 [2, 6]: 100 to 500 nM

SMILES: COc1c(OCC2CC2)ccc2c1N=C(/C=C(\O)c1cccnc1)N1CCN=C21 [Example 1-15]
melting point: 254 °C (dec.)
IC50 [2, 6]: 100 to 500 nM

SMILES: COc1cc2c(cc1OC)C1=NCCN1C(/C=C(\O)c1ccc3[nH]cnc3c1)=N2.Cl [Example 1-57]
melting point: 240 °C (dec.)
IC50 [2, 6]: < 100 nM

SMILES: Nc1ccccc1C(=O)NC1=Nc2ccccc2C2=NCCN12.O=C(O)C(F)(F)F [Example 2-257]
melting point: 175 °C (dec.)
IC50 [2, 5]: > 2000 nM

SMILES: COc1cc2c(cc1OC)C1=NCCN1C(/C=C(\O)c1sc(C)nc1C)=N2 [Example 1-60]
melting point: 292 °C
IC50 [2, 6]: < 100 nM

SMILES: COc1c(OCCN2CCCCC2)ccc2c1N=C(/C=C(\O)c1cccnc1)N1CCN=C21 [Example 1-20]
melting point: 162 to 163 °C
IC50 [2, 6]: 100 to 500 nM

SMILES: CC(=O)Nc1ccc(/C(O)=C/C2=Nc3c(CN4CCOCC4)cccc3C3=NCCN23)cn1 [Example 1-208]
melting point: 253 °C (dec.)
IC50 [2, 6]: 100 to 500 nM

SMILES: O=C(NC1=Nc2ccccc2C2=NCCN12)c1cccc(Cl)c1.O=C(O)C(F)(F)F [Example 2-228]
melting point: 233 to 235 °C
IC50 [2, 5]: 500 to 2000 nM

SMILES: CC(=O)Nc1ccc(/C(O)=C/C2=Nc3cc(CN4CCOCC4)ccc3C3=NCCN23)cn1 [Example 1-113]
melting point: 245 °C
IC50 [2, 6]: 100 to 500 nM
